Data taken from PubChem BioAssay (NCI).
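Five concentrations, 48 hours, 96-well plates. GI50 marks 50% less growth. At the TGI there is no net growth.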

What was measured:
Assay in all cases: inhibition of tumour cell growth, NCI panel, 48 h
CAKI-1 renal = system: CAKI-1 renal
DLD-1 colon = system: DLD-1 colon
KM20L2 colon = system: KM20L2 colon
NCI-H226 lung = system: NCI-H226 lung
NCI-H522 lung = system: NCI-H522 lung
OVCAR-5 ovarian = system: OVCAR-5 ovarian
SK-MEL-28 melanoma = system: SK-MEL-28 melanoma
SNB-75 CNS = system: SNB-75 CNS
SR leukemia = system: SR leukemia
UACC-62 melanoma = system: UACC-62 melanoma
UO-31 renal = system: UO-31 renal
786-0 renal = system: 786-0 renal
A498 renal = system: A498 renal
A549 NSCLC = system: A549 NSCLC
ACHN renal = system: ACHN renal
BT-549 breast = system: BT-549 breast
CCRF-CEM leukemia = system: CCRF-CEM leukemia
COLO 205 colon = system: COLO 205 colon
DU-145 prostate = system: DU-145 prostate
EKVX NSCLC = system: EKVX NSCLC
HCC-2998 colon = system: HCC-2998 colon
HCT-116 colon = system: HCT-116 colon
HCT-15 colon = system: HCT-15 colon
HL-60(TB) leukemia = system: HL-60(TB) leukemia
HOP-62 NSCLC = system: HOP-62 NSCLC
HOP-92 NSCLC = system: HOP-92 NSCLC
HS 578T breast = system: HS 578T breast
HT29 colon = system: HT29 colon
IGROV1 ovarian = system: IGROV1 ovarian
K-562 leukemia = system: K-562 leukemia
KM12 colon = system: KM12 colon
LOX IMVI melanoma = system: LOX IMVI melanoma
M14 melanoma = system: M14 melanoma
MALME-3M melanoma = system: MALME-3M melanoma
MCF7 breast = system: MCF7 breast
MDA-MB-231 breast = system: MDA-MB-231 breast
MDA-MB-435 = system: MDA-MB-435
MDA-N = system: MDA-N
MOLT-4 leukemia = system: MOLT-4 leukemia
NCI-H23 lung = system: NCI-H23 lung
NCI-H460 lung = system: NCI-H460 lung
NCI/ADR-RES ovarian = system: NCI/ADR-RES ovarian
OVCAR-3 ovarian = system: OVCAR-3 ovarian
OVCAR-4 ovarian = system: OVCAR-4 ovarian
OVCAR-8 ovarian = system: OVCAR-8 ovarian
PC-3 prostate = system: PC-3 prostate
RPMI-8226 leukemia = system: RPMI-8226 leukemia
RXF 393 renal = system: RXF 393 renal
SF-268 CNS = system: SF-268 CNS
SF-295 CNS = system: SF-295 CNS
SF-539 CNS = system: SF-539 CNS
SK-MEL-2 melanoma = system: SK-MEL-2 melanoma
SK-MEL-5 melanoma = system: SK-MEL-5 melanoma
SK-OV-3 ovarian = system: SK-OV-3 ovarian
SN12C renal = system: SN12C renal
SNB-19 CNS = system: SNB-19 CNS
SW-620 colon = system: SW-620 colon
T-47D breast = system: T-47D breast
TK-10 renal = system: TK-10 renal
U251 CNS = system: U251 CNS
UACC-257 melanoma = system: UACC-257 melanoma

Compound: O=C([O-])C([O-])C([O-])C(=O)[O-].[Co+3].c1ccc(-c2ccnc3c2ccc2c(-c4ccccc4)ccnc23)cc1.c1ccc(-c2ccnc3c2ccc2c(-c4ccccc4)ccnc23)cc1.c1ccc(-c2ccnc3c2ccc2c(-c4ccccc4)ccnc23)cc1
- GI50 (CAKI-1 renal): 0.0339 µM
- TGI (CAKI-1 renal): 0.235 µM
- TGI (DLD-1 colon): 1.6 µM
- TGI (KM20L2 colon): 0.291 µM
- TGI (NCI-H226 lung): 0.27 µM
- TGI (NCI-H522 lung): 0.128 µM
- TGI (OVCAR-5 ovarian): 1.65 µM
- TGI (SK-MEL-28 melanoma): 1.96 µM
- TGI (SNB-75 CNS): > 100 µM
- TGI (SR leukemia): 0.207 µM
- TGI (UACC-62 melanoma): 0.407 µM
- TGI (UO-31 renal): 0.0823 µM

Compound: COC1(C)CCC(OS(C)(=O)=O)CO1 (stereo not given)
- TGI (786-0 renal): > 100 µM
- TGI (A498 renal): > 100 µM
- TGI (A549 NSCLC): > 100 µM
- TGI (ACHN renal): > 100 µM
- TGI (BT-549 breast): > 100 µM
- TGI (CAKI-1 renal): > 100 µM
- TGI (CCRF-CEM leukemia): > 100 µM
- TGI (COLO 205 colon): > 100 µM
- TGI (DU-145 prostate): > 100 µM
- TGI (EKVX NSCLC): > 100 µM
- TGI (HCC-2998 colon): > 100 µM
- TGI (HCT-116 colon): > 100 µM
- TGI (HCT-15 colon): > 100 µM
- TGI (HL-60(TB) leukemia): > 100 µM
- TGI (HOP-62 NSCLC): > 100 µM
- TGI (HOP-92 NSCLC): > 100 µM
- TGI (HS 578T breast): > 100 µM
- TGI (HT29 colon): > 100 µM
- TGI (IGROV1 ovarian): > 100 µM
- TGI (K-562 leukemia): > 100 µM
- TGI (KM12 colon): > 100 µM
- TGI (LOX IMVI melanoma): > 100 µM
- TGI (M14 melanoma): > 100 µM
- TGI (MALME-3M melanoma): > 100 µM
- TGI (MCF7 breast): > 100 µM
- TGI (MDA-MB-231 breast): > 100 µM
- TGI (MDA-MB-435): > 100 µM
- TGI (MDA-N): > 100 µM
- TGI (MOLT-4 leukemia): > 100 µM
- TGI (NCI-H226 lung): > 100 µM
- TGI (NCI-H23 lung): > 100 µM
- TGI (NCI-H460 lung): > 100 µM
- TGI (NCI-H522 lung): > 100 µM
- TGI (NCI/ADR-RES ovarian): > 100 µM
- TGI (OVCAR-3 ovarian): > 100 µM
- TGI (OVCAR-4 ovarian): > 100 µM
- TGI (OVCAR-5 ovarian): > 100 µM
- TGI (OVCAR-8 ovarian): > 100 µM
- TGI (PC-3 prostate): > 100 µM
- TGI (RPMI-8226 leukemia): > 100 µM
- TGI (RXF 393 renal): > 100 µM
- TGI (SF-268 CNS): > 100 µM
- TGI (SF-295 CNS): > 100 µM
- TGI (SF-539 CNS): > 100 µM
- TGI (SK-MEL-2 melanoma): > 100 µM
- TGI (SK-MEL-28 melanoma): > 100 µM
- TGI (SK-MEL-5 melanoma): > 100 µM
- TGI (SK-OV-3 ovarian): > 100 µM
- TGI (SN12C renal): > 100 µM
- TGI (SNB-19 CNS): > 100 µM
- TGI (SNB-75 CNS): > 100 µM
- TGI (SR leukemia): > 100 µM
- TGI (SW-620 colon): > 100 µM
- TGI (T-47D breast): > 100 µM
- TGI (TK-10 renal): > 100 µM
- TGI (U251 CNS): > 100 µM
- TGI (UACC-257 melanoma): > 100 µM
- TGI (UACC-62 melanoma): > 100 µM
- TGI (UO-31 renal): > 100 µM

Compound: C[C@H](CCc1nc(C#N)c(N)o1)[C@H]1CC[C@H]2[C@@H]3CCC4C[C@@H](O)CC[C@]4(C)[C@H]3C[C@@H](O)[C@]12C (stereo not given in full)
- TGI (786-0 renal): 24 µM
- TGI (A498 renal): 36.6 µM
- TGI (A549 NSCLC): 23 µM
- TGI (ACHN renal): 28.6 µM
- TGI (BT-549 breast): 14.7 µM
- TGI (CAKI-1 renal): 28.4 µM
- TGI (CCRF-CEM leukemia): 0.445 µM
- TGI (COLO 205 colon): 31.2 µM
- TGI (DU-145 prostate): 28 µM
- TGI (EKVX NSCLC): 27.8 µM
- TGI (HCC-2998 colon): 31.2 µM
- TGI (HCT-116 colon): 26.4 µM
- TGI (HCT-15 colon): 29.5 µM
- TGI (HL-60(TB) leukemia): 2.38 µM
- TGI (HOP-62 NSCLC): 40.8 µM
- TGI (HOP-92 NSCLC): 28 µM
- TGI (HS 578T breast): 31.6 µM
- TGI (HT29 colon): 27.7 µM
- TGI (IGROV1 ovarian): 25.6 µM
- TGI (K-562 leukemia): 39.6 µM
- TGI (KM12 colon): 28.2 µM
- TGI (LOX IMVI melanoma): 23.8 µM
- TGI (M14 melanoma): 34.2 µM
- TGI (MALME-3M melanoma): 28.4 µM
- TGI (MCF7 breast): 35.7 µM
- TGI (MDA-MB-231 breast): 32.7 µM
- TGI (MDA-MB-435): 30 µM
- TGI (MDA-N): 30.9 µM
- TGI (MOLT-4 leukemia): 20.2 µM
- TGI (NCI-H226 lung): 25.1 µM
- TGI (NCI-H23 lung): 32.7 µM
- TGI (NCI-H460 lung): 31.3 µM
- TGI (NCI-H522 lung): 16.2 µM
- TGI (NCI/ADR-RES ovarian): 25 µM
- TGI (OVCAR-3 ovarian): 27.3 µM
- TGI (OVCAR-4 ovarian): 4.92 µM
- TGI (OVCAR-5 ovarian): 35.1 µM
- TGI (OVCAR-8 ovarian): 20.3 µM
- TGI (PC-3 prostate): 16.3 µM
- TGI (RPMI-8226 leukemia): 6.05 µM
- TGI (RXF 393 renal): 24.7 µM
- TGI (SF-268 CNS): 27.8 µM
- TGI (SF-295 CNS): 30.5 µM
- TGI (SF-539 CNS): 27.6 µM
- TGI (SK-MEL-2 melanoma): 32.2 µM
- TGI (SK-MEL-28 melanoma): 26.6 µM
- TGI (SK-MEL-5 melanoma): 29.5 µM
- TGI (SK-OV-3 ovarian): 28.5 µM
- TGI (SN12C renal): 24.6 µM
- TGI (SNB-19 CNS): 31 µM
- TGI (SNB-75 CNS): 25 µM
- TGI (SR leukemia): 29 µM
- TGI (SW-620 colon): 27.4 µM
- TGI (T-47D breast): 30.3 µM
- TGI (TK-10 renal): 28.6 µM
- TGI (U251 CNS): 26.5 µM
- TGI (UACC-257 melanoma): 20.4 µM
- TGI (UACC-62 melanoma): 25.3 µM
- TGI (UO-31 renal): 16.6 µM

Compound: CC(C)=CCNc1ncnc2c1ncn2CCC(=O)O
- TGI (786-0 renal): > 100 µM
- TGI (A498 renal): > 100 µM
- TGI (A549 NSCLC): > 100 µM
- TGI (ACHN renal): > 100 µM
- TGI (BT-549 breast): > 100 µM
- TGI (CCRF-CEM leukemia): > 100 µM
- TGI (COLO 205 colon): > 100 µM
- TGI (DU-145 prostate): > 100 µM
- TGI (HCC-2998 colon): > 100 µM
- TGI (HCT-116 colon): > 100 µM
- TGI (HCT-15 colon): > 100 µM
- TGI (HL-60(TB) leukemia): > 100 µM
- TGI (HOP-62 NSCLC): > 100 µM
- TGI (HOP-92 NSCLC): > 100 µM
- TGI (HS 578T breast): > 100 µM
- TGI (HT29 colon): > 100 µM
- TGI (IGROV1 ovarian): > 100 µM
- TGI (K-562 leukemia): > 100 µM
- TGI (KM12 colon): > 100 µM
- TGI (LOX IMVI melanoma): > 100 µM
- TGI (M14 melanoma): > 100 µM
- TGI (MALME-3M melanoma): > 100 µM
- TGI (MCF7 breast): > 100 µM
- TGI (MDA-MB-231 breast): > 100 µM
- TGI (MDA-MB-435): > 100 µM
- TGI (MDA-N): > 100 µM
- TGI (MOLT-4 leukemia): > 100 µM
- TGI (NCI-H226 lung): > 100 µM
- TGI (NCI-H23 lung): > 100 µM
- TGI (NCI-H460 lung): > 100 µM
- TGI (NCI-H522 lung): > 100 µM
- TGI (NCI/ADR-RES ovarian): > 100 µM
- TGI (OVCAR-3 ovarian): > 100 µM
- TGI (OVCAR-4 ovarian): > 100 µM
- TGI (OVCAR-5 ovarian): > 100 µM
- TGI (OVCAR-8 ovarian): > 100 µM
- TGI (PC-3 prostate): > 100 µM
- TGI (RPMI-8226 leukemia): > 100 µM
- TGI (RXF 393 renal): > 100 µM
- TGI (SF-268 CNS): > 100 µM
- TGI (SF-295 CNS): > 100 µM
- TGI (SF-539 CNS): > 100 µM
- TGI (SK-MEL-28 melanoma): > 100 µM
- TGI (SK-MEL-5 melanoma): > 100 µM
- TGI (SK-OV-3 ovarian): > 100 µM
- TGI (SN12C renal): > 100 µM
- TGI (SNB-19 CNS): > 100 µM
- TGI (SNB-75 CNS): > 100 µM
- TGI (SR leukemia): > 100 µM
- TGI (SW-620 colon): > 100 µM
- TGI (T-47D breast): > 100 µM
- TGI (TK-10 renal): > 100 µM
- TGI (U251 CNS): > 100 µM
- TGI (UACC-62 melanoma): > 100 µM
- TGI (UO-31 renal): > 100 µM
